Measured values published in article PMC7367873, “Dissecting the sequence determinants for dephosphorylation by the catalytic subunits of phosphatases PP1 and PP2A” (Nature Communications, 2020).

Assays:
PP1c/PP2Ac = assay: PP1c versus PP2Ac specificity of p-sites (pairwise comparison / hierarchical clustering of phosphoproteomic data); format: biochemical, human; settings: HeLa Kyoto lysate; for Sensitivity (phosphatase exclusively dephosphorylating the p-site): p-site significantly decreased exclusively by PP1c or PP2Ac, 1 µM phosphatase, 1 h, 30 °C
Procedure: For phosphoproteomics, HeLa Kyoto cells were incubated with 20 nM Calyculin A (CST, #9902) for 10–15 min. This time point was determined empirically to yield maximal phosphatase inhibition without cells showing pleiotropic effects. Subsequently, cells were placed on ice and washed twice with cold PBS and scraped in lysis buffer (100 mM NaCl, 10 mM Tris, 0.1% IGEPAL, 1 mM EDTA, 1 mM EGTA, 20 nM Calyculin A, 1x cOmplete Mini protease inhibitor cocktail (Sigma), 1 mM DTT, 1 mM MnCl2, pH 7.5). After 10 pushes through an injection needle (21 G, BD), lysate was cleared from the insoluble fraction by centrifugation (10 min, 10^4 rcf, 4 °C). Protein concentration was then determined by a Bradford Assay and equal amounts of 1 mg total protein were incubated with recombinant PP1c/PP2Ac or buffer at a final phosphatase concentration of 1 µM in a total volume of 200 µL for 1 h at 30 °C. Lysates were then immediately placed on ice. PhosStop […] (Roche) was added and proteins were denatured by adding urea to a final concentration of 8 M taking into account the volume increase. Samples were then snap-frozen in liquid nitrogen for storage and subsequent MS analysis.
Downstream analysis of the phosphoproteomic datasets was carried out using the software tool Perseus[66]. For analysis of phosphoproteomic experiments, row-wise, median-normalized data (see previous section) was linked to known regulatory sites by PhosphoSitePlus entries and categorical columns for treatments were assigned. Reverse peptides and potential contaminants were filtered. Next, categorical columns for biological functions and treatments were assigned. TMT reporter intensities were then transformed into log2. At this point, all data were then filtered for valid values in all three replicates of at least one condition. Next, the distribution of TMT reporter intensities was assessed visually by plotting count-based histogramms and in a multiscatter plot using the Pearson correlation as an estimate of reproducibility. Next, NA (=not available: missing) values were replaced by imputation from a normal distribution (width 0.3, down-shift 1.8, per column). The data quality was routinely assessed by two means: First, by plotting a histogram of peptide length vs. counts and visualization of imputed values to confirm a normal distribution of the data, and secondly by principal component analysis (default settings in Perseus) to judge the sample grouping.
For hierarchical clustering, the results of the one-way ANOVA were processed for two more steps in Perseus: first data were filtered for significant hits from the one-way ANOVA and then subjected to z-transformation. Hierarchical clustering images were produced using Euclidean distance, 300 clusters and 10 rounds of iteration.
Also all further data processing for protein enrichment and extraction of protein sequences in positions −5 to +5 relative to the p-sites of interest for subsequent motif analysis was performed using RStudio with R v3.3.2 using the packages tidyverse and BioStrings. In order to study the sequence specificity of PP1c and PP2Ac on the protein level, position specific probability matrices, representing the relative occurrence for each amino acid surrounding pSer/pThr were produced by extracting sequence information in positions −5 to +5 for all PP1c/PP2Ac-sensitive class I p-sites. Next, the count for each amino acid in each position was divided by the total of all counts for a certain position, resulting in relative abundance. […] Importantly, amino acids with less than 25 counts in PP1-sensitive/-insensitive or PP2A-sensitive/insensitive comparisons were excluded. For calculating a heat map directly comparing PP1c against PP2Ac, these fold changes were divided. […] Obtained p-values were adjusted for multiple testing using the method of Benjamini and Hochberg.
PP1c/PP2Ac-sensitive class I sites were divided into three classes as illustrated for PP1c in Supplementary Fig. 4c. […]

[1] = system: GFP-14-3-3β and its binding proteins; assay: GFP-14-3-3β co-IP with LC-MS/MS label-free quantification, untreated versus PP1c-treated; set-up: species or system human
GFP-14-3-3β = GFP-14-3-3β co-IP with LC-MS/MS, untreated GFP-14-3-3β versus GFP control (14-3-3 interactome); format: binding, human
[2] = pairwise comparison PP1 vs untreated, student's t-test, 3 replicates each, LC-MS/MS label-free quantification
[3] = pairwise comparison untreated GFP-14-3-3β vs GFP, student's t-test, 3 replicates each, LC-MS/MS label-free quantification
[4] = pairwise comparison PP1 vs untreated
[5] = pairwise comparison untreated vs GFP
[6] = log2 difference, pairwise comparison PP1 vs untreated, label-free quantification, 3 replicates each
[7] = log2 difference, pairwise comparison untreated vs GFP, label-free quantification, 3 replicates each
[8] = PP1 vs untreated, label-free quantification
[9] = untreated vs GFP, label-free quantification
[10] = GFP-14-3-3β co-IP LC-MS/MS, PP1 vs untreated, student's t-test, label-free quantification, 3 replicates each
[11] = GFP-14-3-3β co-IP LC-MS/MS, untreated vs GFP, student's t-test, label-free quantification, 3 replicates each

USP8 718: 14-3-3 interaction site, window LKRSYSSPDIT
Sensitivity (phosphatase exclusively dephosphorylating the p-site) (PP1c/PP2Ac): PP1c

SRSF8 158: S/R-rich splicing factor p-site, window SRYSRSPYSRS
Sensitivity (phosphatase exclusively dephosphorylating the p-site) (PP1c/PP2Ac): PP1c

SPPPVSKRESKSRSRSKSPPKSPEEEGAVSS [SRSF2 206]
Sensitivity (phosphatase exclusively dephosphorylating the p-site) (PP1c/PP2Ac): PP1c

SRSF5 233: S/R-rich splicing factor p-site, window RSVSRSPVPEK
Sensitivity (phosphatase exclusively dephosphorylating the p-site) (PP1c/PP2Ac): PP1c

SRSF8 163: S/R-rich splicing factor p-site, window SPYSRSPYSRS
Sensitivity (phosphatase exclusively dephosphorylating the p-site) (PP1c/PP2Ac): PP1c

SRSF10 133: S/R-rich splicing factor p-site, window RSRSRSFDYNY
Sensitivity (phosphatase exclusively dephosphorylating the p-site) (PP1c/PP2Ac): PP1c

LHQCISRRAENARSASFSQGTRASFLMRSDT [GAB2 210]
GAB2 pS210 dephosphorylation in phosphoproteomic assay (PP1c/PP2Ac; 1 µM PP1c or PP2Ac): dephosphorylated by PP1c but not PP2Ac | Sensitivity (phosphatase exclusively dephosphorylating the p-site) (PP1c/PP2Ac): PP1c

SRSF7 192: S/R-rich splicing factor p-site, window SRYFQSPSRSR
Sensitivity (phosphatase exclusively dephosphorylating the p-site) (PP1c/PP2Ac): PP1c

KGDIKSKSRSRSQSRSNSPLPVPPSKARSVS [SRSF6 301]
Sensitivity (phosphatase exclusively dephosphorylating the p-site) (PP1c/PP2Ac): PP1c

SRSF5 231: S/R-rich splicing factor p-site, window KSRSVSRSPVP
Sensitivity (phosphatase exclusively dephosphorylating the p-site) (PP1c/PP2Ac): PP1c

EVPVPPPVPPRRRPESAPAESSPSKIMSKHL [SOS1 1161]
Sensitivity (phosphatase exclusively dephosphorylating the p-site) (PP1c/PP2Ac): PP1c

YAP1
Difference (log2), PP1 vs untreated [1, 2]: -2.787 log2 | Difference (log2), untreated vs GFP (GFP-14-3-3β; [3]): 8.338 log2

STOM
Difference (log2), PP1 vs untreated [1, 4]: 0.02924 log2 | Difference (log2), untreated vs GFP (GFP-14-3-3β; [5]): -0.5691 log2

FXR1
Difference (log2), PP1 vs untreated [1, 6]: 2.4595 | Difference (log2), untreated vs GFP (GFP-14-3-3β; [7]): -1.238

BRAF
Difference (log2), PP1 vs untreated ([1]; PP1 vs untreated, LFQ intensities, replicates 1-3): -1.253 log2 | Difference (log2), untreated vs GFP (GFP-14-3-3β; untreated vs GFP, LFQ intensities, replicates 1-3): 7.361 log2

TTC28
Difference (log2), PP1 vs untreated [1, 2]: -4.888 log2 | Difference (log2), untreated vs GFP (GFP-14-3-3β; [3]): 4.184 log2

DSP
Difference (log2), PP1 vs untreated [1, 6]: 4.203 | Difference (log2), untreated vs GFP (GFP-14-3-3β; [7]): -0.252

TFAM
Difference (log2), PP1 vs untreated ([1]; PP1 vs untreated, LFQ intensities, 3 replicates each): 0.5786 log2 | Difference (log2), untreated vs GFP (GFP-14-3-3β; untreated vs GFP, LFQ intensities, 3 replicates each): -2.855 log2

DYNC1H1
Difference (log2), PP1 vs untreated [1, 8]: 0.7684 log2 | Difference (log2), untreated vs GFP (GFP-14-3-3β; [9]): 3.605 log2

KIAA0930
Difference (log2), PP1 vs untreated [1, 2]: -2.858 log2 | Difference (log2), untreated vs GFP (GFP-14-3-3β; [3]): 3.752 log2

KIAA1671
Difference (log2), PP1 vs untreated [1, 10]: -0.2284 log2 | Difference (log2), untreated vs GFP (GFP-14-3-3β; [11]): 1.934 log2

ZC3H4
Difference (log2), PP1 vs untreated [1, 4]: -0.1033 log2 | Difference (log2), untreated vs GFP (GFP-14-3-3β; [5]): 0.7684 log2

SLC7A5
Difference (log2), PP1 vs untreated [1, 10]: -0.2534 log2 | Difference (log2), untreated vs GFP (GFP-14-3-3β; [11]): 0.7726 log2

MARK1
Difference (log2), PP1 vs untreated [1, 2]: -2.037 log2 | Difference (log2), untreated vs GFP (GFP-14-3-3β; [3]): 5.5786 log2

MAP7D1
Difference (log2), PP1 vs untreated [1, 8]: 0.8008 log2 | Difference (log2), untreated vs GFP (GFP-14-3-3β; [9]): 0.3595 log2

DENND4A
Difference (log2), PP1 vs untreated [1, 2]: -5.672 log2 | Difference (log2), untreated vs GFP (GFP-14-3-3β; [3]): 5.3156 log2
